How the values were obtained:
[1] = test system: cleavers (GALAP); experiment: Postemergence greenhouse trial, % visual injury on cleavers; format: in vivo, Galium aparine
Description: (§1) Seeds of the desired test plant species were planted in Sun Gro MetroMix® 306 planting mixture, which typically has a pH of 6.0 to 6.8 and an organic matter content of about 30 percent, in plastic pots with a surface area of 103.2 square centimeters (cm^2). When required to ensure good germination and healthy plants, a fungicide treatment and/or other chemical or physical treatment was applied. The plants were grown for 7-36 days (d) in a greenhouse with an approximate 14-hour (h) photoperiod which was maintained at about 23° C. during the day and 22° C. during the night. Nutrients and water were added on a regular basis and supplemental lighting was provided with overhead metal halide 1000-Watt lamps as necessary. The plants were employed for testing when they reached the second or third true leaf stage.
(§2) Weighed amounts of technical material were dissolved in a volume of 97:3 volume per volume (v/v) acetone/dimethyl sulfoxide (DMSO) to stock solutions. […] The concentrated stock solutions were diluted with an aqueous mixture of 1.5% v/v of Agri-dex crop oil concentrate to provide the appropriate application rates. Compound requirements are based upon a 12 milliliter (mL) application volume at a rate of 187 liters per hectare (L/ha). Stocks solutions of the safeners were prepared following the same procedure. Spray solutions of the safeners and experimental compound mixtures were prepared by adding the stock solutions to the appropriate amount of dilution solution to form a 12 mL spray solution in two-way combinations. Formulated compounds were applied to the plant material with an overhead Mandel track sprayer equipped with 8002E nozzles calibrated to deliver 187 L/ha over an application area of 0.503 square meters (m^2) at a spray height of 18 inches (43 centimeters (cm)) above average plant canopy. Control plants were sprayed in the same manner with the solvent blank. All herbicide application (component a) rates are in g ae/ha and all safener (component b) rates are in g ai/ha.
(§3) The treated plants and control plants were placed in a greenhouse as described above and watered by sub-irrigation to prevent wash-off of the test compounds. After 20-22 d, the condition of the test plants as compared with that of the control plants was determined visually and scored on a scale of 0 to 100 percent where 0 corresponds to no injury and 100 corresponds to complete kill. The condition of the test plants was compared with that of the control plants as determined visually and scored on a scale of 0 to 100 percent, where 0 corresponds to no injury and 100 corresponds to complete kill. Colby's equation was used to determine the herbicidal effects expected from the mixtures.
(§4) The safener cloquintocet-mexyl was combined with compound 1, compound 2, compound 3, compound 7, compound 8, compound 9, compound 10, compound 11, compound 12, compound 13, compound 14, compound 15, compound 16, compound 17, compound 18, compound 19, and compound 20, and applied to spring wheat (TRZAS), winter wheat (TRZAW), and spring barley (HORVS) and the phytotoxicity of the herbicidal compositions was measured. […]

[2] = test system: shepherd's purse (CAPBP); experiment: Postemergence greenhouse trial, % visual injury on shepherd's purse; format: in vivo, Capsella bursa-pastoris; settings: alone
Description: as §1, §2, §3, §4

[3] = test system: wild buckwheat (POLCO); experiment: Postemergence greenhouse trial, % visual injury on wild buckwheat; format: in vivo, Polygonum convolvulus; settings: for % visual injury, observed (Ob): POLCO
Summary of the method: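 Visual injury, 0 (none) to 100 (complete kill), rated 20-22 d after overhead track-sprayer application at 187 L/ha; Colby's equation gave expected mixture responses. Herbicide (g ae/ha) and cloquintocet-mexyl safener (g ai/ha) diluted in aqueous 1.5% v/v Agri-dex, applied to weeds at 2–3 true leaves.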

[4] = test system: nutsedge (CYPES); experiment: Postemergence greenhouse trial, % visual injury on nutsedge; format: in vivo, Cyperus esculentus; settings: for % visual injury, observed (Ob): CYPES
Summary of the method: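 Injury was scored visually (0 = none, 100 = complete kill) 20–22 d after track-sprayer application at 187 L/ha, compared with solvent-sprayed controls. Test plants at the 2–3 true leaf stage; herbicide (g ae/ha) plus cloquintocet-mexyl safener (g ai/ha) in crop-oil-containing spray; expected mixture response by Colby.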

[5] = test system: cornflower (CENCY); experiment: Postemergence greenhouse trial, % visual injury on cornflower; format: in vivo, Centaurea cyanus or Cyanus segetum; settings: alone
Description: as §1, §2, §3, §4

[6] = test system: prickly lettuce (LACSE); experiment: Postemergence greenhouse trial, % visual injury on prickly lettuce; format: in vivo, Lactuca serriola
Summary of the method: (§5)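 Herbicide rates g ae/ha, safener (cloquintocet-mexyl) rates g ai/ha; spray carrier 1.5% v/v crop oil concentrate, 187 L/ha, 2nd–3rd leaf stage. Rating: visual % injury at 20-22 d.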

[7] = test system: wild mustard (SINAR); experiment: Postemergence greenhouse trial, % visual injury on wild mustard; format: in vivo, Sinapis arvensis; settings: for % visual injury, Ob / % visual injury, observed (Ob): SINAR
Summary of the method: as §5

[8] = compound 0 g/ha, CQC-m 4.375 g/ha
[9] = compound 0 g/ha, CQC-m 8.75 g/ha
[10] = compound 0 g/ha, CQC-m 17.5 g/ha
[11] = compound 8 0 + CQC-m 4.375 g/ha

CCCCCC(C)OC(=O)COc1ccc(Cl)c2cccnc12 (stereo not drawn) [CQC-m, cloquintocet-mexyl, reference compound]
0%: % visual injury, Ob ([1]; 4.375 g/ha, applied alone) | % visual injury, Ob ([1]; 8.75 g/ha, applied alone) | % visual injury, Ob ([1]; 17.5 g/ha, applied alone) | % visual injury, Ob ([1]; 35 g/ha, applied alone) | % visual injury, Ob ([1]; 70 g/ha, applied alone) | % visual injury, Ob [1, 8] | % visual injury, Ob [1, 9] | % visual injury, Ob [1, 10] | % visual injury, Ob ([1]; compound 0 g/ha, CQC-m 35 g/ha) | % visual injury, Ob ([1]; compound 0 g/ha, CQC-m 70 g/ha) | % visual injury, Ob ([2]; 4.375 g/ha) | % visual injury, Ob ([2]; 8.75 g/ha) | % visual injury, Ob ([2]; 17.5 g/ha) | % visual injury, Ob ([2]; 35 g/ha) | % visual injury, Ob ([2]; 70 g/ha) | % visual injury, observed (Ob) [3, 11] | % visual injury, observed (Ob) ([3]; compound 8 0 + CQC-m 8.75 g/ha) | % visual injury, observed (Ob) ([3]; compound 8 0 + CQC-m 17.5 g/ha) | % visual injury, observed (Ob) ([3]; compound 8 0 + CQC-m 35 g/ha) | % visual injury, observed (Ob) ([3]; compound 8 0 + CQC-m 70 g/ha) | % visual injury, Ob ([3]; alone, 35 g/ha) | % visual injury, observed (Ob) ([4]; safener alone 2.5 g/ha) | % visual injury, observed (Ob) ([4]; safener alone 5 g/ha) | % visual injury, observed (Ob) ([4]; safener alone 10 g/ha) | % visual injury, observed (Ob) ([4]; safener alone 20 g/ha) | % visual injury, Ob ([4]; alone, 35 g/ha) | % visual injury, Ob ([5]; 4.375 g/ha) | % visual injury, Ob ([5]; 8.75 g/ha) | % visual injury, Ob ([5]; 35 g/ha) | % visual injury, Ob ([6]; LACSE, compound 0, CQC-m 4.375 g/ha) | % visual injury, Ob ([6]; LACSE, compound 0, CQC-m 8.75 g/ha) | % visual injury, Ob ([6]; LACSE, compound 0, CQC-m 17.5 g/ha) | % visual injury, Ob ([6]; LACSE, compound 0, CQC-m 35 g/ha) | % visual injury, Ob ([6]; LACSE, compound 0, CQC-m 70 g/ha) | % visual injury, Ob ([6]; LACSE, compound 0 g/ha, CQC-m 4.375 g/ha) | % visual injury, Ob ([6]; LACSE, compound 0 g/ha, CQC-m 8.75 g/ha) | % visual injury, Ob ([6]; LACSE, compound 0 g/ha, CQC-m 17.5 g/ha) | % visual injury, Ob ([6]; LACSE, compound 0 g/ha, CQC-m 35 g/ha) | % visual injury, Ob ([6]; LACSE, compound 0 g/ha, CQC-m 70 g/ha) | % visual injury, Ob ([6]; alone, 4.375 g/ha) | % visual injury, Ob ([6]; alone, 8.75 g/ha) | % visual injury, Ob ([6]; alone, 17.5 g/ha) | % visual injury, Ob ([6]; alone, 35 g/ha) | % visual injury, Ob ([6]; alone, 70 g/ha) | pest or weed control at 4.375 g/ha ([7]; Brassica, post-emergence, alone, 4.375 g/ha, read-out: % visual injury, Ob) | pest or weed control at 8.75 g/ha ([7]; Brassica, post-emergence, alone, 8.75 g/ha, read-out: % visual injury, Ob) | pest or weed control at 17.5 g/ha ([7]; Brassica, post-emergence, alone, 17.5 g/ha, read-out: % visual injury, Ob) | pest or weed control at 35 g/ha ([7]; Brassica, post-emergence, alone, 35 g/ha, read-out: % visual injury, Ob) | pest or weed control at 70 g/ha ([7]; Brassica, post-emergence, alone, 70 g/ha, read-out: % visual injury, Ob) | % visual injury, Ob ([7]; 4.375 g/ha, applied alone) | % visual injury, Ob ([7]; 8.75 g/ha, applied alone) | % visual injury, Ob ([7]; 17.5 g/ha, applied alone) | % visual injury, Ob ([7]; 35 g/ha, applied alone) | % visual injury, Ob ([7]; 70 g/ha, applied alone) | % visual injury, Ob ([7]; compound 0, CQC-m 4.375 g/ha) | % visual injury, Ob ([7]; compound 0, CQC-m 8.75 g/ha) | % visual injury, Ob ([7]; compound 0, CQC-m 17.5 g/ha) | % visual injury, Ob ([7]; compound 0, CQC-m 35 g/ha) | % visual injury, Ob ([7]; compound 0, CQC-m 70 g/ha) | % visual injury, Ob [7, 8] | % visual injury, Ob [7, 9] | % visual injury, Ob [7, 10] | % visual injury, Ob ([7]; compound 0 g/ha, CQC-m 35 g/ha) | % visual injury, Ob ([7]; compound 0 g/ha, CQC-m 70 g/ha) | % visual injury, observed (Ob) [7, 11] | % visual injury, observed (Ob) ([7]; compound 8 0 + CQC-m 8.75 g/ha) | % visual injury, observed (Ob) ([7]; compound 8 0 + CQC-m 17.5 g/ha) | % visual injury, observed (Ob) ([7]; compound 8 0 + CQC-m 35 g/ha) | % visual injury, observed (Ob) ([7]; compound 8 0 + CQC-m 70 g/ha)

— patent US9763445B2, “Safened herbicidal compositions comprising a pyridine carboxylic acid herbicide” (Dow AgroSciences, LLC, priority 2014, dated 2017)
